{
  "source": "patent US20100298141A1",
  "about": "“SUBSTITUTED PYRIDINE N-OXIDE HERBICIDES” (E. I. DU PONT DE NEMOURS AND COMPANY, priority 2007, published 2010)",
  "key": {"corn": {"system": "corn", "experiment": "Test A pre-/postemergence greenhouse test", "assay_type": "in vivo, Zea mays", "conditions": "for Corn plant response rating: 0 to 100 scale", "how_it_was_run": "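Greenhouse herbicide screen, pre- and postemergence in parallel. Soil: loam plus sand. Formulation: non-phytotoxic solvent mix with surfactant. Postemergence stage: one to two leaves, 2–10 cm height. Evaluation: visual injury, compared with untreated controls, about 10 days after treatment.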"}, "blackgrass": {"system": "blackgrass", "experiment": "Test C pre-/postemergence test", "assay_type": "in vivo, Alopecurus myosuroides", "conditions": "Postemergence; for Plant response rating, Blackgrass: scale 0 to 100, 0 no effect, 100 complete control", "how_it_was_run": "(§1)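 Compounds in a non-phytotoxic solvent with surfactant applied preemergence to seeded pots and, at the same time, postemergence to plants 2–18 cm tall (1- to 4-leaf stage). Paddy tests: pots flooded to 3 cm, compound applied into the water, depth held throughout.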"}, "green foxtail": {"system": "green foxtail", "experiment": "Test C pre-/postemergence test", "assay_type": "in vivo, Setaria viridis", "conditions": "Postemergence; for Plant response rating, Foxtail, Green: scale 0 to 100, 0 no effect, 100 complete control", "how_it_was_run": "as §1"}, "common ragweed": {"system": "common ragweed", "experiment": "Test C pre-/postemergence test", "assay_type": "in vivo, Ambrosia elation", "conditions": "for Plant response rating, Ragweed: scale 0 to 100, 0 no effect, 100 complete control", "how_it_was_run": "as §1"}, "bermudagrass": {"system": "bermudagrass", "experiment": "Test F preemergence test", "assay_type": "in vivo, Cynodon dactylon", "conditions": "scale 0 to 100", "how_it_was_run": "(§2)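 Visual ratings relative to controls, taken after 14 to 21 days in a greenhouse. Test chemicals, formulated in a surfactant-containing non-phytotoxic solvent mixture, were applied preemergence to sown seeds or postemergence to sugarcane plants.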"}, "Surinam grass": {"system": "Surinam grass", "experiment": "Test F preemergence test", "assay_type": "in vivo, Brachiaria decumbens", "conditions": "scale 0 to 100", "how_it_was_run": "as §2"}, "kochia": {"system": "kochia", "experiment": "Test F preemergence test", "assay_type": "in vivo, Kochia scoparia", "conditions": "scale 0 to 100", "how_it_was_run": "as §2"}, "mustard": {"system": "mustard", "experiment": "Test F preemergence test", "assay_type": "in vivo, Brassica nigra", "conditions": "scale 0 to 100", "how_it_was_run": "as §2"}, "dallisgrass": {"system": "dallisgrass", "experiment": "Test F preemergence test", "assay_type": "in vivo, Paspalum dilatatum", "conditions": "scale 0 to 100", "how_it_was_run": "as §2"}, "prickly sida": {"system": "prickly sida", "experiment": "Test F preemergence test", "assay_type": "in vivo, Sida spinosa", "conditions": "scale 0 to 100", "how_it_was_run": "as §2"}, "broadleaf signalgrass": {"system": "broadleaf signalgrass", "experiment": "Test F preemergence test", "assay_type": "in vivo, Brachiaria platyphylla", "conditions": "scale 0 to 100", "how_it_was_run": "as §2"}, "Virginia dayflower": {"system": "Virginia dayflower", "experiment": "Test F preemergence test", "assay_type": "in vivo, Commelina virginica", "conditions": "scale 0 to 100", "how_it_was_run": "as §2"}, "quackgrass": {"system": "quackgrass", "experiment": "Test F preemergence test", "assay_type": "in vivo, Elytrigia repens", "conditions": "scale 0 to 100", "how_it_was_run": "as §2"}, "common mallow": {"system": "common mallow", "experiment": "Test F preemergence test", "assay_type": "in vivo, Malva sylvestris", "conditions": "scale 0 to 100", "how_it_was_run": "as §2"}},
  "data": [
    {"molecule": "Cn1nc(C(F)(F)F)c(C[S+]([O-])c2ccc(Cl)c[n+]2[O-])c1OC(F)F", "note": "(stereo not drawn) [Compound 6]", "values": [
      {"measurement": "Corn plant response rating", "setting": "corn; Postemergence, 125 g ai/ha, 0 is no effect, 100 is complete control", "value": 60},
      {"measurement": "Corn plant response rating", "setting": "corn; Postemergence, 500 g ai/ha, 0 is no effect, 100 is complete control", "value": 80},
      {"measurement": "Corn plant response rating", "setting": "corn; Preemergence, 125 g ai/ha, 0 no effect, 100 complete control", "value": 80},
      {"measurement": "Plant response rating, Corn", "setting": "corn; Preemergence, 500 g ai/ha, 0 to 100 scale where 0 is no effect and 100 is complete control", "value": 90},
      {"measurement": "Plant response rating (0 to 100), Blackgrass", "setting": "blackgrass; 31 g ai/ha", "value": 0},
      {"measurement": "Plant response rating, Blackgrass", "setting": "blackgrass; 62 g ai/ha", "value": 50},
      {"measurement": "Plant response rating, Blackgrass", "setting": "blackgrass; 125 g ai/ha", "value": 50},
      {"measurement": "Plant response rating, Blackgrass", "setting": "blackgrass; 250 g ai/ha", "value": 50},
      {"measurement": "Plant response rating (0 to 100), Foxtail, Green", "setting": "green foxtail; 31 g ai/ha", "value": 30},
      {"measurement": "Plant response rating, Foxtail, Green", "setting": "green foxtail; 62 g ai/ha", "value": 55},
      {"measurement": "Plant response rating, Foxtail, Green", "setting": "green foxtail; 125 g ai/ha", "value": 70},
      {"measurement": "Plant response rating, Foxtail, Green", "setting": "green foxtail; 250 g ai/ha", "value": 70},
      {"measurement": "Ragweed plant response rating", "setting": "common ragweed; 31 g ai/ha, Preemergence, scale 0 to 100", "value": 0},
      {"measurement": "Ragweed plant response rating", "setting": "common ragweed; 62 g ai/ha, preemergence, scale 0 (no effect) to 100 (complete control)", "value": 0},
      {"measurement": "Plant response rating (0 to 100), Ragweed", "setting": "common ragweed; Postemergence, 31 g ai/ha", "value": 0},
      {"measurement": "Plant response rating (0 to 100), Ragweed", "setting": "common ragweed; Postemergence, 62 g ai/ha", "value": 0},
      {"measurement": "Plant response rating, Ragweed", "setting": "common ragweed; Postemergence, 125 g ai/ha", "value": 10},
      {"measurement": "Plant response rating, Ragweed", "setting": "common ragweed; Postemergence, 250 g ai/ha", "value": 50},
      {"measurement": "Plant response rating (0 to 100), Ragweed", "setting": "common ragweed; Preemergence, 250 g ai/ha", "value": 40},
      {"measurement": "Ragweed plant response rating", "setting": "common ragweed; preemergence, 125 g ai/ha, scale 0 (no effect) to 100 (complete control)", "value": 0},
      {"measurement": "Plant response rating, Bermudagrass", "setting": "bermudagrass; 8 g ai/ha, preemergence", "value": 0},
      {"measurement": "Bermudagrass plant response rating", "setting": "bermudagrass; 62 g ai/ha, Preemergence", "value": 80},
      {"measurement": "Plant response rating, Bermudagrass", "setting": "bermudagrass; Preemergence, 16 g ai/ha", "value": 15},
      {"measurement": "Plant response rating, Bermudagrass", "setting": "bermudagrass; Preemergence, 31 g ai/ha", "value": 65},
      {"measurement": "Plant response rating, Surinam Grass", "setting": "Surinam grass; 8 g ai/ha, preemergence", "value": 0},
      {"measurement": "Plant response rating, Surinam Grass", "setting": "Surinam grass; 16 g ai/ha, preemergence", "value": 60},
      {"measurement": "Surinam Grass plant response rating", "setting": "Surinam grass; 62 g ai/ha, Preemergence", "value": 90},
      {"measurement": "Plant response rating, Surinam Grass", "setting": "Surinam grass; Preemergence, 31 g ai/ha", "value": 70},
      {"measurement": "Plant response rating, Kochia", "setting": "kochia; 8 g ai/ha, preemergence", "value": 0},
      {"measurement": "Kochia plant response rating", "setting": "kochia; 62 g ai/ha, Preemergence", "value": 60},
      {"measurement": "Plant response rating, Kochia", "setting": "kochia; Preemergence, 16 g ai/ha", "value": 0},
      {"measurement": "Plant response rating, Kochia", "setting": "kochia; Preemergence, 31 g ai/ha", "value": 0},
      {"measurement": "Plant response rating, Black Mustard", "setting": "mustard; 8 g ai/ha, preemergence", "value": 0},
      {"measurement": "Black Mustard plant response rating", "setting": "mustard; 62 g ai/ha, Preemergence", "value": 100},
      {"measurement": "Plant response rating, Black Mustard", "setting": "mustard; Preemergence, 16 g ai/ha", "value": 0},
      {"measurement": "Plant response rating, Black Mustard", "setting": "mustard; Preemergence, 31 g ai/ha", "value": 100},
      {"measurement": "Plant response rating, Dallisgrass", "setting": "dallisgrass; 8 g ai/ha, preemergence", "value": 0},
      {"measurement": "Dallisgrass plant response rating", "setting": "dallisgrass; 62 g ai/ha, Preemergence", "value": 70},
      {"measurement": "Plant response rating, Dallisgrass", "setting": "dallisgrass; Preemergence, 16 g ai/ha", "value": 20},
      {"measurement": "Plant response rating, Dallisgrass", "setting": "dallisgrass; Preemergence, 31 g ai/ha", "value": 50},
      {"measurement": "Plant response rating, Prickly Sida", "setting": "prickly sida; 8 g ai/ha, preemergence", "value": 0},
      {"measurement": "Prickly Sida plant response rating", "setting": "prickly sida; 62 g ai/ha, Preemergence", "value": 100},
      {"measurement": "Plant response rating, Prickly Sida", "setting": "prickly sida; Preemergence, 16 g ai/ha", "value": 0},
      {"measurement": "Plant response rating, Prickly Sida", "setting": "prickly sida; Preemergence, 31 g ai/ha", "value": 80},
      {"measurement": "Plant response rating, Signalgrass", "setting": "broadleaf signalgrass; 8 g ai/ha, preemergence", "value": 0},
      {"measurement": "Plant response rating, Signalgrass", "setting": "broadleaf signalgrass; 16 g ai/ha, preemergence", "value": 50},
      {"measurement": "Signalgrass plant response rating", "setting": "broadleaf signalgrass; 62 g ai/ha, Preemergence", "value": 95},
      {"measurement": "Plant response rating, Signalgrass", "setting": "broadleaf signalgrass; Preemergence, 31 g ai/ha", "value": 65},
      {"measurement": "Plant response rating, Dayflower", "setting": "Virginia dayflower; 8 g ai/ha, preemergence", "value": 0},
      {"measurement": "Dayflower plant response rating", "setting": "Virginia dayflower; 62 g ai/ha, Preemergence", "value": 100},
      {"measurement": "Plant response rating, Dayflower", "setting": "Virginia dayflower; Preemergence, 16 g ai/ha", "value": 90},
      {"measurement": "Plant response rating, Dayflower", "setting": "Virginia dayflower; Preemergence, 31 g ai/ha", "value": 90},
      {"measurement": "Plant response rating, Quackgrass", "setting": "quackgrass; 8 g ai/ha, preemergence", "value": 0},
      {"measurement": "Quackgrass plant response rating", "setting": "quackgrass; 62 g ai/ha, Preemergence", "value": 75},
      {"measurement": "Plant response rating, Quackgrass", "setting": "quackgrass; Preemergence, 16 g ai/ha", "value": 60},
      {"measurement": "Plant response rating, Quackgrass", "setting": "quackgrass; Preemergence, 31 g ai/ha", "value": 65},
      {"measurement": "Plant response rating, Mallow", "setting": "common mallow; 8 g ai/ha, preemergence", "value": 0},
      {"measurement": "Mallow plant response rating", "setting": "common mallow; 62 g ai/ha, Preemergence", "value": 90},
      {"measurement": "Plant response rating, Mallow", "setting": "common mallow; Preemergence, 16 g ai/ha", "value": 0},
      {"measurement": "Plant response rating, Mallow", "setting": "common mallow; Preemergence, 31 g ai/ha", "value": 30}
    ]}
  ]
}
